Results as given in patent publication US11066413B2, “Aminopyrimidine five-membered heterocyclic compound, and intermediate, preparation method, pharmaceutical composition and application thereof” (GUANGZHOU MAXINOVEL PHARMACEUTICALS CO., LTD., priority 2017, dated 2021).

Each compound was assayed against hA2A receptor (Homo sapiens (Human), UniProt P29274) (assay: binding affinity IC50 to hA2A receptor ([3H]-CGS 21680 filter binding, Effect Embodiment 2)). Conditions: A2A membrane, [3H]-CGS 21680 (final 25 nM), 90 minutes at 25° C.
hA2A receptor, sequence (P29274 whole entry): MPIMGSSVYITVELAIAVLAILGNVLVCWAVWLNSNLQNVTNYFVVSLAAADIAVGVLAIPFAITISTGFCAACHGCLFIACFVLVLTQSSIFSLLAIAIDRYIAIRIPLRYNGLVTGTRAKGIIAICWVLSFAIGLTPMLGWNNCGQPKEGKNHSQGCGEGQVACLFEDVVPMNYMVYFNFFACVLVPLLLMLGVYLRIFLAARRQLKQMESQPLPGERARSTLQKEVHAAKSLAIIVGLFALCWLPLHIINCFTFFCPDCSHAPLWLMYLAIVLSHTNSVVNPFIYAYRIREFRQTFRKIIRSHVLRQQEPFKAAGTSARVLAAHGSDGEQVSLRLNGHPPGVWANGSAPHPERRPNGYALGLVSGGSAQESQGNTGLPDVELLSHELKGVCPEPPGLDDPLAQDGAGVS
Method: Evaluation experiment of the binding affinity IC50 of the compounds 1-61 to hA2A receptor
40 uL of ULTIMA GOLD scintillation fluid was added to each well and the CPM (count per minute) value was read by TopCount.

Row | Compound | IC50 [nM]
1 | Nc1nc(-c2ccco2)c2c(n1)C(Cc1ccc(Cl)cc1F)OC2=O (stereo not drawn) [Compound 2, 2-amino-7-(4-chloro-2-fluorobenzyl)-4-(furan-2-yl)-5H,7H-furo[3,4-d]pyrimidin-5-one] | 39.3
2 | N#Cc1ccc(CC2OC(=O)c3c(-c4ccco4)nc(N)nc32)cc1F (stereo not drawn) [Compound 3] | 159
3 | Nc1nc(-c2ccco2)c2c(n1)C(Cc1ccccc1)OC2=O (stereo not drawn) [Compound 5, 2-amino-7-benzyl-4-(furan-2-yl)-5H,7H-furo[3,4-d]pyrimidin-5-one] | 40
4 | Nc1nc(-c2ccco2)c2c(n1)[C@@H](Cc1ccccc1)OC2 [Compound 6, (R)-7-benzyl-4-(furan-2-yl)-5,7-dihydrofuro[3,4-d]pyrimidin-2-amine] | 157
5 | Nc1nc(-c2ccco2)c2c(n1)C(Cc1ccc(F)cc1F)OC2=O (stereo not drawn) [Compound 8, 2-amino-7-(2,4-difluorobenzyl)-4-(furan-2-yl)-5H,7H-furo[3,4-d]pyrimidin-5-one] | 10.7
6 | Nc1nc(-c2ccco2)c2c(n1)C(Cc1ccc(F)cc1Cl)OC2=O (stereo not drawn) [Compound 10, 2-amino-7-(2-chloro-4-fluorobenzyl)-4-(furan-2-yl)-5H,7H-furo[3,4-d]pyrimidin-5-one] | 114
7 | Nc1nc(-c2ccco2)c2c(n1)C(Cc1ccc(Cl)c(F)c1)OC2=O (stereo not drawn) [Compound 12, 2-amino-7-(4-chloro-3-fluorobenzyl)-4-(furan-2-yl)-5H,7H-furo[3,4-d]pyrimidin-5-one] | 99.8
8 | Cc1ccccc1CC1OC(=O)c2c(-c3ccco3)nc(N)nc21 (stereo not drawn) [Compound 19, 2-amino-7-((2-methylphenyl)methyl)-4-(furan-2-yl)-5H,7H-furo[3,4-d]pyrimidin-5-one] | 31.1
9 | Nc1nc(-c2ccco2)c2c(n1)C(Cc1cc(C(F)(F)F)cc(C(F)(F)F)c1)OC2=O (stereo not drawn) [Compound 20, 2-amino-7-((3,5-di(trifluoromethyl)phenyl)methyl)-4-(furan-2-yl)-5H,7H-furo[3,4-d]pyrimidin-5-one] | 299
10 | Cc1ccc(-c2nc(N)nc3c2C(=O)OC3Cc2ccc(F)cc2F)o1 (stereo not drawn) [Compound 26, 2-amino-7-((2,4-difluorophenyl)methyl)-4-(5-methylfuran-2-yl)-5H,7H-furo[3,4-d]pyrimidin-5-one] | 32.1
11 | Cc1ccc(-c2nc(N)nc3c2C(=O)OC3Cc2ccccc2C(F)(F)F)o1 (stereo not drawn) [Compound 28, 2-amino-7-((2-(trifluoromethyl)phenyl)methyl)-4-(5-methylfuran-2-yl)-5H,7H-furo[3,4-d]pyrimidin-5-one] | 11.2
12 | Cc1ccc(-c2nc(N)nc3c2C(=O)OC3Cc2cc(F)ccc2F)o1 (stereo not drawn) [Compound 29, 2-amino-7-((2,5-difluorophenyl)methyl)-4-(5-methylfuran-2-yl)-5H,7H-furo[3,4-d]pyrimidin-5-one] | 252
13 | Cc1ccc(-c2nc(N)nc3c2C(=O)OC3Cc2cc(Cl)ccc2F)o1 (stereo not drawn) [Compound 30, 2-amino-7-((5-chloro-2-fluorophenyl)methyl)-4-(5-methylfuran-2-yl)-5H,7H-furo[3,4-d]pyrimidin-5-one] | 94
14 | Nc1nc(-c2ccc(Br)o2)c2c(n1)C(Cc1ccccc1OC(F)(F)F)OC2=O (stereo not drawn) [Compound 37, 2-amino-7-((2-(trifluoromethoxyl)phenyl)methyl)-4-(5-bromofuran-2-yl)-5H,7H-furo[3,4-d]pyrimidin-5-one] | 67.4
15 | Cc1ccc(-c2nc(N)nc3c2C(=O)OC3Cc2ccccc2OC(F)F)o1 (stereo not drawn) [Compound 39, 2-amino-7-((2-(difluoromethoxyl)phenyl)methyl)-4-(5-methylfuran-2-yl)-5H,7H-furo[3,4-d]pyrimidin-5-one] | 128
16 | Cc1ccc(-c2nc(N)nc3c2C(=O)OC3Cc2ccc(F)cc2F)o1 (stereo not drawn) [Compound 42, 2-amino-7-((2,4-difluorophenyl)methyl)-7-deuterium-4-(5-methylfuran-2-yl)-5H,7H-furo[3,4-d]pyrimidin-5-one] | 87.4
17 | Cc1ccc(-c2nc(N)nc3c2C(=O)OC3(C)Cc2ccccc2F)o1 (stereo not drawn) [Compound 43, 2-amino-7-((2-fluorophenyl)methyl)-7-methyl-4-(5-methylfuran-2-yl)-5H,7H-furo[3,4-d]pyrimidin-5-one] | 992
18 | CN1C(=O)c2c(-c3ccco3)nc(N)nc2C1Cc1ccccc1F (stereo not drawn) [Compound 44, 2-amino-7-((2-fluorophenyl)methyl)-4-(furan-2-yl)-6-methyl-5H,6H,7H-pyrrolo[3,4-d]pyrimidin-5-one] | 64.6
19 | CN1C(=O)c2c(-c3ccco3)nc(N)nc2C1Cc1ccccc1OC(F)(F)F (stereo not drawn) [Compound 45, 2-amino-7-((2-trifluoromethoxylphenyl)methyl)-4-(furan-2-yl)-6-methyl-5H,6H,7H-pyrrolo[3,4-d]pyrimidin-5-one] | 11.6

Further lines, results first:

Row | IC50 [nM] | Compound
20 | 177 | 2-amino-6-(5-methylfuran-2-yl)-9-(2-(trifluoromethyl)phenyl)-8(9H)-carbonyl-7H-purine [Compound 60]
21 | 106 | 2-amino-9-((2-fluorophenyl)methyl)-6-(furan-2-yl)-7-methyl-8,9-dihydro-7H-purinyl-8-one [Compound 40]
22 | 249 | N#Cc1ccc(CC2OC(=O)c3c(-c4ccco4)nc(N)nc32)cc1 (stereo not drawn) [Compound 4]
23 | 32.1 | Nc1nc(-c2ccco2)c2c(n1)C(Cc1ccccc1Cl)OC2=O (stereo not drawn) [Compound 11, 2-amino-7-(2-chlorobenzyl)-4-(furan-2-yl)-5H,7H-furo[3,4-d]pyrimidin-5-one]
24 | 152 | CS(=O)(=O)c1ccc(CC2OC(=O)c3c(-c4ccco4)nc(N)nc32)cc1 (stereo not drawn) [Compound 13, 2-amino-4-(furan-2-yl)-7-(4-methylsulfonylbenzyl)-5H,7H-furo[3,4-d]pyrimidin-5-one]
25 | 218 | NC(=O)c1ccc(CC2OC(=O)c3c(-c4ccco4)nc(N)nc32)cc1 (stereo not drawn) [Compound 14, 4-((2-amino-4-(furan-2-yl)-5-oxo-5H,7H-furo[3,4-d]pyrimidin-7-yl)methyl)benzamide]
26 | 274 | Nc1nc(-c2ccco2)c2c(n1)C(Cc1ccc(C(F)(F)F)cc1)OC2=O (stereo not drawn) [Compound 15]
27 | 15.7 | Nc1nc(-c2ccco2)c2c(n1)C(Cc1ccccc1C(F)(F)F)OC2=O (stereo not drawn) [Compound 16, 2-amino-4-(furan-2-yl)-7-((2-(trifluoromethyl)phenyl)methyl)-5H,7H-furo[3,4-d]pyrimidin-5-one]
28 | 29.2 | Nc1nc(-c2ccco2)c2c(n1)C(Cc1c(F)cccc1Cl)OC2=O (stereo not drawn) [Compound 17, 2-amino-7-((2-chloro-6-fluorophenyl)methyl)-4-(furan-2-yl)-5H,7H-furo[3,4-d]pyrimidin-5-one]
29 | 73.7 | Nc1nc(-c2ccco2)c2c(n1)C(Cc1cccc(Cl)c1F)OC2=O (stereo not drawn) [Compound 18, 2-amino-7-((3-chloro-2-fluorophenyl)methyl)-4-(furan-2-yl)-5H,7H-furo[3,4-d]pyrimidin-5-one]
30 | 106 | Nc1nc(-c2ccco2)c2c(n1)C(Cc1ccc(OC(F)(F)F)cc1)OC2=O (stereo not drawn) [Compound 21, 2-amino-7-((4-(trifluoromethoxyl)phenyl)methyl)-4-(furan-2-yl)-5H,7H-furo[3,4-d]pyrimidin-5-one]
31 | 47.3 | Nc1nc(-c2ccco2)c2c(n1)C(Cc1c(F)cccc1F)OC2=O (stereo not drawn) [Compound 22, 2-amino-7-((2,6-difluorophenyl)methyl)-4-(furan-2-yl)-5H,7H-furo[3,4-d]pyrimidin-5-one]
32 | 3.9 | Nc1nc(-c2ccco2)c2c(n1)C(Cc1ccccc1OC(F)(F)F)OC2=O (stereo not drawn) [Compound 23, 2-amino-7-((2-(trifluoromethoxyl)phenyl)methyl)-4-(furan-2-yl)-5H,7H-furo[3,4-d]pyrimidin-5-one]
33 | 918 | Nc1nc(-c2ccccn2)c2c(n1)C(Cc1ccccc1)OC2=O (stereo not drawn) [Compound 24, 2-amino-7-benzyl-4-(pyridin-2-yl)-5H,7H-furo[3,4-d]pyrimidin-5-one]
34 | 21 | Cc1ccc(-c2nc(N)nc3c2C(=O)OC3Cc2ccccc2F)o1 (stereo not drawn) [Compound 27, 2-amino-7-((2-fluorophenyl)methyl)-4-(5-methylfuran-2-yl)-5H,7H-furo[3,4-d]pyrimidin-5-one]
35 | 38.4 | Cc1ccc(-c2nc(N)nc3c2C(=O)OC3Cc2c(F)cccc2Cl)o1 (stereo not drawn) [Compound 31, 2-amino-7-((6-chloro-2-fluorophenyl)methyl)-4-(5-methylfuran-2-yl)-5H,7H-furo[3,4-d]pyrimidin-5-one]
36 | 19.9 | Cc1ccc(-c2nc(N)nc3c2C(=O)OC3Cc2ccc(F)cc2C(F)(F)F)o1 (stereo not drawn) [Compound 32, 2-amino-7-((4-fluoro-2-(trifluoromethyl)phenyl)methyl)-4-(5-methylfuran-2-yl)-5H,7H-furo[3,4-d]pyrimidin-5-one]
37 | 275 | Nc1nc(-c2ccco2)c2c(n1)[C@H](Cc1ccccc1)OC2 [Compound 33, (S)-7-benzyl-4-(furan-2-yl)-5,7-dihydrofuro[3,4-d]pyrimidin-2-amine]
38 | 30.1 | Cn1c(=O)n(Cc2ccc(F)cc2F)c2nc(N)nc(-c3ccco3)c21 [Compound 35, 2-amino-9-((2,4-difluorophenyl)methyl)-6-(furan-2-yl)-7-methyl-8,9-dihydro-7H-purinyl-8-one]
39 | 28.1 | Cc1ccc(-c2nc(N)nc3c2C(=O)OC3Cc2ccccc2OC(F)(F)F)o1 (stereo not drawn) [Compound 36, 2-amino-7-((2-(trifluoromethoxyl)phenyl)methyl)-4-(5-methylfuran-2-yl)-5H,7H-furo[3,4-d]pyrimidin-5-one]
40 | 6.1 | CN1C(=O)c2c(nc(N)nc2-c2ccco2)C1=Cc1ccccc1F [Compound 38, 2-amino-7-((2-fluorophenyl)methylene)-4-(furan-2-yl)-6-methyl-5H,6H,7H-pyrrolo[3,4-d]pyrimidin-5-one]
41 | 43.5 | Cn1c(=O)n(Cc2ccccc2F)c2nc(N)nc(-c3ccco3)c21 [Compound 41, 2-amino-9-((2-fluorophenyl)methyl)-6-(furan-2-yl)-7-methyl-8,9-dihydro-7H-purinyl-8-one]
42 | 8.7 | CN1C(=O)c2c(nc(N)nc2-c2ccco2)C1=Cc1ccc(F)cc1F [Compound 46, 2-amino-7-((2,4-difluorophenyl)methylene)-4-(furan-2-yl)-6-methyl-5H,6H,7H-pyrrolo[3,4-d]pyrimidin-5-one]
